# Experimental data: patent US20250282820A1, “PEPTIDE COMPLEX HAVING TRKB BINDING ACTIVITY” (PEPTIDREAM INC, priority 2022, published 2025)
# *1 amine or outer side, *2 acyl side, *3 side chain or, on linkers, in order; H or OH if unused. Where a SMILES comes first, the peptide text is derived from it. Bridges are numbered along the chain shown (N, C = ends). Roman numbers before positions name the chains, in order. [ ]: non-standard residue; d: D form. ξ: configuration not given here. CO(CH2)2(OCH2CH2)17CO = O=C(CCOCCOCCOCCOCCOCCOCCOCCOCCOCCOCCOCCOCCOCCOCCOCCOCCOCCC(=O)[*:2])[*:1]; CO(CH2CH2O)13CH2CH2CO = O=C(CCOCCOCCOCCOCCOCCOCCOCCOCCOCCOCCOCCOCCOCCC(=O)[*:2])[*:1]; X1 = O=C(OCCOCCOCCOCCOCCOCCOCCOCCOCCOCCOCCOCCOC(=O)[*:2])[*:1]; 3Pal = N[C@@H](Cc1cccnc1)C(=O)O; ξP = O=C(O)C1CCCN1
# How the values were obtained:
# Type in all cases: cell-based
# [1] = biological target: T1, TrkB (CellSensor TrkB-NFAT-bla CHO-K1 Cell) (Homo sapiens, UniProt Q16620); assay: NFAT transcriptional reporter assay for TrkB agonist activity; conditions: class = peptide concentration giving 50% or more activity; BDNF maximum signal = 100%, no stimulation = 0%; 5 hours culture
# T1 construct: host or cells: CHO-K1 (CellSensor TrkB-NFAT-bla CHO-K1)
# Protocol: To evaluate the TrkB activation potency of the TrkB agonist peptide of the present invention, transcriptional activity was examined using transcriptional reporters. The CellSensor (registered trademark) TrkB-NFAT-bla CHO-K1 Cell (Invitrogen) used in the AlphaLISA assay was cultured in the medium above. After the cells were detached using Accutase (Innovative Cell Technologies), the cells were suspended in an assay medium, wherein Blasticidin and Zeocin were removed, then seeded into a 96-well plate for adherent cultures at 12,500 cells per well and cultured overnight. Then, BDNF or a peptide was added thereto, and the cells were further cultured in a CO2 incubator for 5 hours. After the 96-well plate was removed from the incubator and brought to room temperature, a detection reagent (LiveBLAzer (registered trademark)-FRET B/G (CCF4-AM) Substrate Mixture) was added while protected from the light, and the 96-well plate was incubated while protected from the light in a moisture box with a lid for 2 hours. For signal detection, a EnVision 2104 Multilabel Plate Reader (PerkinElmer) was used, and the ratio of fluorescence emission value (460 nm/535 nm) was calculated. The obtained numerical values were analyzed with GraphPad Prism, and the activity (%) was calculated with the maximum value of the signals induced by BDNF as 100% and a signal with no stimulation as 0%. The peptide with 50% or more activity when 1 nM of the peptide was added was evaluated as A, the peptide with 50% or more activity when 10 nM of the peptide was added was evaluated as B, and the peptide with 50% or more activity when 100 nM of the peptide was added was evaluated as C. Those that were not evaluated were listed as not tested.
# The BDNF was evaluated at 7 points (0.0024 nM to 10 nM) from 10 nM using 4-fold dilutions.
# (§1) For dimer structures Nos. 1 to 3, the peptide was evaluated at 1 nM, 10 nM, and 100 nM, and, for other dimer structure numbers, the peptide was evaluated at 0.1 nM, 1 nM, and 10 nM. When creating the concentration dependence curve, the BDNF and the peptides were evaluated at 7 points (0.006 nM to 100 nM) from 25 nM using 4-fold dilutions.
# [2] = biological target: T1, TrkB (CellSensor TrkB-NFAT-bla CHO-K1 Cell); assay: pERK1/2 AlphaLISA assay (phosphorylation of ERK) for TrkB agonist activity; conditions: class = peptide concentration giving 50% or more activity; BDNF maximum signal = 100%, no stimulation = 0%; 15 minutes of stimulation
# Protocol: To evaluate the TrkB activation potency of the TrkB agonist peptide of the present invention, the phosphorylation of ERK was examined. CellSensor (registered trademark) TrkB-NFAT-bla CHO-K1 Cell (Invitrogen) was cultured in DMEM, high glucose, GlutaMAX (registered trademark) Supplement, and pyruvate (Thermo), comprising 10% FBS (Thermo) and 1× Non-essential amino acids (Thermo), 25 mM HEPES (Thermo), 50 ug/mL Gentamicin, 5 ug/mL Blasticidin (Thermo), and 200 ug/mL Zeocin (Thermo). After the cells were detached using Accutase (Innovative Cell Technologies), they were seeded into a 96-well plate for adherent cultures at 12,500 cells per well and cultured overnight. The next day, for starvation, the culture solution above was replaced with a nutrient starvation medium comprising 0.1% BSA (Sigma), wherein FBS, Blasticidin, and Zeocin were removed from the culture medium, and culturing was performed for 4 hours. Thereafter, Recombinant Human BDNF Protein (R&D Systems) or a peptide was added, and after 15 minutes of stimulation, cells were lysed in the Lysis Buffer provided with the AlphaLISA SureFire Ultra p-Erk1/2 (Thr202/Tyr204) assay kit (PerkinElmer). The assay was performed according to the kit protocol. The signals were detected using a SpectraMax Paradigm Multi-Mode Microplate Reader (Molecular Devices). The obtained signals were analyzed with GraphPad Prism, and the activity (%) was calculated with the maximum value of the signals induced by BDNF as 100% and a signal with no stimulation as 0%. The peptide with 50% or more activity when 1 nM of the peptide was added was evaluated as A, and the peptide with 50% or more activity when 10 nM of the peptide was added was evaluated as B.
# The BDNF was evaluated at 8 points (0.0006 nM to 10 nM) from 10 nM using 4-fold dilutions.
# as §1, with “8” for “7”, “100” for “25”
# TrkB = TrkB (Homo sapiens, UniProt Q16620); assay: PathHunter eXpress TrkB Functional Assay (phosphorylation of TrkB); conditions: stimulation for 3 hours; for Emax: maximum signal induced by BDNF = 100%
# Summary of the method: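 PathHunter TrkB cells, cultured 48 h, were stimulated 3 h with peptide or BDNF, then detection reagent added for 60 min at room temperature; luminescence read. Activity (%) scaled from unstimulated (0%) to maximal BDNF signal (100%); peptides tested over 0.006104-100 nM, 0.032-100 nM or 0.01-10 nM ranges.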
# Sequence of TrkB (Q16620 32-822): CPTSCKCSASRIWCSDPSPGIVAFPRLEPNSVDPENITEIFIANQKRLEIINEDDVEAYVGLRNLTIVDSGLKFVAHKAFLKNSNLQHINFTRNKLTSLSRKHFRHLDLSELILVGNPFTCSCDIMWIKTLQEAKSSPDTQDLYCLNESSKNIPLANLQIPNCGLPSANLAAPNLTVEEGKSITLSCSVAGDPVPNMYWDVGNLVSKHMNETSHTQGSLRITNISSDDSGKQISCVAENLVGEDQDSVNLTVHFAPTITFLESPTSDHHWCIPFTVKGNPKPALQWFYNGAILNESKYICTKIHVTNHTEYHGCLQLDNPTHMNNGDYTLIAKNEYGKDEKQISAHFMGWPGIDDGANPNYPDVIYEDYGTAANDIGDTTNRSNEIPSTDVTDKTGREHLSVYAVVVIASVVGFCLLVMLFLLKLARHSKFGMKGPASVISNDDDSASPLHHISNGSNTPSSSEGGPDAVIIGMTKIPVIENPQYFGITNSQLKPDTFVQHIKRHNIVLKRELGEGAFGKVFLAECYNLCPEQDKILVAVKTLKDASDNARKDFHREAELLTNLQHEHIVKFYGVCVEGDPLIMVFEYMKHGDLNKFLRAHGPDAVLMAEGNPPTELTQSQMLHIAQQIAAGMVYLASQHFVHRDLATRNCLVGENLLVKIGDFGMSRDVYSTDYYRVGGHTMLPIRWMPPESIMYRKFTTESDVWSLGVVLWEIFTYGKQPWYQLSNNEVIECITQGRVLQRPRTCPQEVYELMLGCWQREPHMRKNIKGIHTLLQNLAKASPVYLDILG
# T1 sequence (Q16620 32-822): as above
SMILES,NFAT Assay Results [1],pERK (aLISA) Assay Results [2],Emax (TrkB) [%],EC50 (TrkB) [nM]
"CC(C)[C@@H]1NC(=O)[C@H](Cc2cccnc2)NC(=O)[C@H](CCC(=O)O)NC(=O)[C@H](CO)NC(=O)[C@H](Cc2ccc(O)cc2)NC(=O)[C@H]([C@@H](C)O)NC(=O)[C@@H]2CCCN2C(=O)[C@H](Cc2c[nH]c3ccccc23)NC(=O)[C@H](Cc2cccnc2)NC(=O)[C@H](Cc2ccc(O)cc2)NC(=O)[C@@H]2CCCN2C(=O)[C@H](CO)NC(=O)[C@H](Cc2ccccc2)NC(=O)CSC[C@@H](C(=O)NCC(=O)N[C@@H](CCCCNC(=O)CCOCCOCCOCCOCCOCCOCCOCCOCCOCCOCCOCCOCCOCCOCCOCCOCCOCCC(=O)NCCCC[C@H](NC(=O)CNC(=O)[C@@H]2CSCC(=O)N[C@@H](Cc3ccccc3)C(=O)N[C@@H](CO)C(=O)N3CCC[C@H]3C(=O)N[C@@H](Cc3ccc(O)cc3)C(=O)N[C@@H](Cc3cccnc3)C(=O)N[C@@H](Cc3c[nH]c4ccccc34)C(=O)N3CCC[C@H]3C(=O)N[C@@H]([C@@H](C)O)C(=O)N[C@@H](Cc3ccc(O)cc3)C(=O)N[C@@H](CO)C(=O)N[C@@H](CCC(=O)O)C(=O)N[C@@H](Cc3cccnc3)C(=O)N[C@@H](C(C)C)C(=O)N[C@@H](CCC(=O)O)C(=O)N2)C(N)=O)C(N)=O)NC(=O)[C@H](CCC(=O)O)NC1=O [compound 49] (I: {CH2CO}-FSPY[3Pal]WPTYSE[3Pal]VECGK-NH2 / II: {CH2CO}-FSPY[3Pal]WPTYSE[3Pal]VECGK-NH2; linker I:17-II:17 via CO(CH2)2(OCH2CH2)17CO; thioether I:N-I:15, II:N-II:15)",A (The peptide with 50% or more activity when 1 nM of the peptide was added was evaluated as A),A (The peptide with 50% or more activity when 1 nM of the peptide was added was evaluated as A),107,
"CC(C)[C@@H]1NC(=O)[C@H](Cc2cccnc2)NC(=O)[C@H](CCC(=O)O)NC(=O)[C@H](CO)NC(=O)[C@H](Cc2ccc(O)cc2)NC(=O)[C@H]([C@@H](C)O)NC(=O)C2CCCN2C(=O)[C@H](Cc2c[nH]c3ccccc23)NC(=O)[C@H](Cc2cccnc2)NC(=O)[C@H](Cc2ccc(O)cc2)NC(=O)[C@@H]2CCCN2C(=O)[C@H](CO)NC(=O)[C@H](Cc2ccccc2)NC(=O)CSC[C@@H](C(=O)NCC(=O)N[C@@H](CCCCNC(=O)CCOCCOCCOCCOCCOCCOCCOCCOCCOCCOCCOCCOCCOCCC(=O)NCCCC[C@H](NC(=O)CNC(=O)[C@@H]2CSCC(=O)N[C@@H](Cc3ccccc3)C(=O)N[C@@H](CO)C(=O)N3CCC[C@H]3C(=O)N[C@@H](Cc3ccc(O)cc3)C(=O)N[C@@H](Cc3cccnc3)C(=O)N[C@@H](Cc3c[nH]c4ccccc34)C(=O)N3CCC[C@H]3C(=O)N[C@@H]([C@@H](C)O)C(=O)N[C@@H](Cc3ccc(O)cc3)C(=O)N[C@@H](CO)C(=O)N[C@@H](CCC(=O)O)C(=O)N[C@@H](Cc3cccnc3)C(=O)N[C@@H](C(C)C)C(=O)N[C@@H](CCC(=O)O)C(=O)N2)C(N)=O)C(N)=O)NC(=O)[C@H](CCC(=O)O)NC1=O (stereo partly shown) [Dimer Structure No. 48] (I: {CH2CO}-FSPY[3Pal]WPTYSE[3Pal]VECGK-NH2 / II: {CH2CO}-FSPY[3Pal]W[ξP]TYSE[3Pal]VECGK-NH2; linker I:17-II:17 via CO(CH2CH2O)13CH2CH2CO; thioether I:N-I:15, II:N-II:15)",B (the peptide with 50% or more activity when 10 nM of the peptide was added was evaluated as B),B (the peptide with 50% or more activity when 10 nM of the peptide was added was evaluated as B),89,0.8 to 4
"CC(C)[C@@H]1NC(=O)[C@H](Cc2cccnc2)NC(=O)[C@H](CCC(=O)O)NC(=O)[C@H](CO)NC(=O)[C@H](Cc2ccc(O)cc2)NC(=O)[C@H]([C@@H](C)O)NC(=O)[C@@H]2CCCN2C(=O)[C@H](Cc2c[nH]c3ccccc23)NC(=O)[C@H](Cc2cccnc2)NC(=O)[C@H](Cc2ccc(O)cc2)NC(=O)[C@@H]2CCCN2C(=O)[C@H](CCC(=O)O)NC(=O)[C@H](Cc2ccccc2)NC(=O)CSC[C@@H](C(=O)NCC(=O)N[C@@H](CCCCNC(=O)OCCOCCOCCOCCOCCOCCOCCOCCOCCOCCOCCOCCOC(=O)NCCCC[C@H](NC(=O)CNC(=O)[C@@H]2CSCC(=O)N[C@@H](Cc3ccccc3)C(=O)N[C@@H](CCC(=O)O)C(=O)N3CCC[C@H]3C(=O)N[C@@H](Cc3ccc(O)cc3)C(=O)N[C@@H](Cc3cccnc3)C(=O)N[C@@H](Cc3c[nH]c4ccccc34)C(=O)N3CCC[C@H]3C(=O)N[C@@H]([C@@H](C)O)C(=O)N[C@@H](Cc3ccc(O)cc3)C(=O)N[C@@H](CO)C(=O)N[C@@H](CCC(=O)O)C(=O)N[C@@H](Cc3cccnc3)C(=O)N[C@@H](C(C)C)C(=O)N[C@@H](CCC(=O)O)C(=O)N2)C(N)=O)C(N)=O)NC(=O)[C@H](CCC(=O)O)NC1=O [compound 57] (I: {CH2CO}-FEPY[3Pal]WPTYSE[3Pal]VECGK-NH2 / II: {CH2CO}-FEPY[3Pal]WPTYSE[3Pal]VECGK-NH2; linker I:17-II:17 via X1; thioether I:N-I:15, II:N-II:15)",A (The peptide with 50% or more activity when 1 nM of the peptide was added was evaluated as A),A (The peptide with 50% or more activity when 1 nM of the peptide was added was evaluated as A),99,
"CC(C)[C@@H]1NC(=O)[C@H](Cc2cccnc2)NC(=O)[C@H](CCC(=O)O)NC(=O)[C@H](CO)NC(=O)[C@H](Cc2ccc(O)cc2)NC(=O)[C@H]([C@@H](C)O)NC(=O)[C@@H]2CCCN2C(=O)[C@H](Cc2c[nH]c3ccccc23)NC(=O)[C@H](Cc2cccnc2)NC(=O)[C@H](Cc2ccc(O)cc2)NC(=O)[C@@H]2CCCN2C(=O)[C@H](CO)NC(=O)[C@H](Cc2ccccc2)NC(=O)CSC[C@@H](C(=O)NCC(=O)N[C@@H](CCCCNC(=O)OCCOCCOCCOCCOCCOCCOCCOCCOCCOCCOCCOCCOC(=O)NCCCC[C@H](NC(=O)CNC(=O)[C@@H]2CSCC(=O)N[C@@H](Cc3ccccc3)C(=O)N[C@@H](CO)C(=O)N3CCC[C@H]3C(=O)N[C@@H](Cc3ccc(O)cc3)C(=O)N[C@@H](Cc3cccnc3)C(=O)N[C@@H](Cc3c[nH]c4ccccc34)C(=O)N3CCC[C@H]3C(=O)N[C@@H]([C@@H](C)O)C(=O)N[C@@H](Cc3ccc(O)cc3)C(=O)N[C@@H](CO)C(=O)N[C@@H](CCC(=O)O)C(=O)N[C@@H](Cc3cccnc3)C(=O)N[C@@H](C(C)C)C(=O)N[C@@H](CCC(=O)O)C(=O)N2)C(N)=O)C(N)=O)NC(=O)[C@H](CCC(=O)O)NC1=O [compound 55] (I: {CH2CO}-FSPY[3Pal]WPTYSE[3Pal]VECGK-NH2 / II: {CH2CO}-FSPY[3Pal]WPTYSE[3Pal]VECGK-NH2; linker I:17-II:17 via X1; thioether I:N-I:15, II:N-II:15)",A (The peptide with 50% or more activity when 1 nM of the peptide was added was evaluated as A),A (The peptide with 50% or more activity when 1 nM of the peptide was added was evaluated as A),104,
